This note sets out measurements from US12655125B2 (SIRONAX LTD., priority 2020, dated 2026).

In the experiment the test system is HT-29 cells. Put plainly: HT29 Cells 0FBS Assay In Vitro (TNF-α/SMAC mimetic/zVAD-FMK induced necroptosis, CellTiter-Glo cell viability). The following applies: Homo sapiens, HT-29 cells, FBS free medium, TNF-α (10 ng/ml), SMAC mimetic (6 uM), zVAD-FMK (10 μM), 20 hours, geometric mean EC50. The class given is cell-based. Summed up: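 HT-29 cells (5,000/well, seeded overnight) in serum-free McCoy's 5A were stimulated with TNF-α 10 ng/ml, SMAC mimetic 6 μM and zVAD-FMK 10 μM to induce necroptosis. Compound added as 10-point 3-fold series for 20 h at 37° C. CellTiter-Glo luminescence gives viability; EC50 is geometric mean of duplicate dose-responses.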

Setting [1] is: read-out: Cell activity (EC50) of Compounds 117-281.
Setting [2] is: read-out: Cell activity (EC50) of Compounds 1-116.

Each structure is given as a SMILES string. Like-named read-outs stand apart in the source and are kept apart here.

In general, EC50 refers to the midpoint of the concentration-response curve. As for `Cc1nn(-c2cc(OC3CN(C(=O)N4N=CC[C@H]4c4cc(F)cc(F)c4)C3)c(F)cn2)c(C)c1C(=O)N1CCCC1` [compound 194, (S)-(5-(3,5-difluorophenyl)-4,5-dihydro-1H-pyrazol-1-yl)(3-((2-(3,5-dimethyl-4-(pyrrolidine-1-carbonyl)-1H-pyrazol-1-yl)-5-fluoropyridin-4-yl)oxy)azetidin-1-yl)methanone], the concentration giving a half-maximal response (EC50) under setting [1] was 0.1 to 100 nM.

Consider `Cn1ccnc1-c1cc(OC2CN(C(=O)N3N=CC[C@H]3c3cc(F)cc(F)c3)C2)c(F)cn1` [compound 146, (S)-(5-(3,5-difluorophenyl)-4,5-dihydro-1H-pyrazol-1-yl)(3-((5-fluoro-2-(1-methyl-1H-imidazol-2-yl)pyridin-4-yl)oxy)azetidin-1-yl)methanone], for which the EC50 under setting [1] was 0.1 to 100 nM.

As to `Cn1cncc1-c1cc(OC2CN(C(=O)N3N=CC[C@H]3c3cc(F)cc(F)c3)C2)c(F)cn1` [compound 7, (S)-(5-(3,5-difluorophenyl)-4,5-dihydro-1H-pyrazol-1-yl)(3-((5-fluoro-2-(1-methyl-1H-imidazol-5-yl)pyridin-4-yl)oxy)azetidin-1-yl)methanone], under setting [2], the EC50 is 0.1 to 100 nM.

Regarding `CNC(=O)Cn1nc(C)c(-c2ncc(F)c(OC3CN(C(=O)N4N=CC[C@H]4c4cc(F)cc(F)c4)C3)n2)c1C` [compound 98, (S)-2-(4-(4-((1-(5-(3,5-difluorophenyl)-4,5-dihydro-1H-pyrazole-1-carbonyl)azetidin-3-yl)oxy)-5-fluoropyrimidin-2-yl)-3,5-dimethyl-1H-pyrazol-1-yl)-N-methylacetamide], the concentration for a half-maximal effect (EC50) under setting [2] lay within 0.1 to 100 nM.

Regarding `Cc1c([S+](C)[O-])nn(C)c1-c1cc(OC2CN(C(=O)N3N=CC[C@H]3c3cc(F)cc(F)c3)C2)c(F)cn1` (stereo in doubt) [compound 178, (5-(3,5-difluorophenyl)-4,5-dihydro-1H-pyrazol-1-yl)(3-((2-(1,4-dimethyl-3-(methylsulfinyl)-1H-pyrazol-5-yl)-5-fluoropyridin-4-yl)oxy)azetidin-1-yl)methanone], the EC50 under setting [1] was 0.1 to 100 nM.

Regarding `Cc1nn(C)cc1-c1cc(OC2CN(C(=O)N3N=CC[C@H]3c3cc(F)cc(F)c3)C2)c(F)cn1` [compound 38, (S)-(5-(3,5-difluorophenyl)-4,5-dihydro-1H-pyrazol-1-yl)(3-((2-(1,3-dimethyl-1H-pyrazol-4-yl)-5-fluoropyridin-4-yl)oxy)azetidin-1-yl)methanone], the EC50 under setting [2] was 0.1 to 100 nM.

With `COC(=O)c1cnn(C)c1-c1cc(OC2CN(C(=O)N3N=CC[C@H]3c3cc(F)cc(F)c3)C2)c(F)cn1` [compound 64, methyl (S)-5-(4-((1-(5-(3,5-difluorophenyl)-4,5-dihydro-1H-pyrazole-1-carbonyl)azetidin-3-yl)oxy)-5-fluoropyridin-2-yl)-1-methyl-1H-pyrazole-4-carboxylate], the EC50 under setting [2] lay within 0.1 to 100 nM.

As to `Cc1cc(-c2cc(OC3CN(C(=O)N4N=CC[C@H]4c4cc(F)cc(F)c4)C3)c(F)cn2)n(C)n1` [compound 36, (S)-(5-(3,5-difluorophenyl)-4,5-dihydro-1H-pyrazol-1-yl)(3-((2-(1,3-dimethyl-1H-pyrazol-5-yl)-5-fluoropyridin-4-yl)oxy)azetidin-1-yl)methanone], under setting [2], the 50% effective concentration (EC50) is 0.1 to 100 nM.

Regarding `CNC(=O)Cn1nc(C)c(-c2cc(OC3CN(C(=O)N4N=CC[C@H]4c4cc(F)cc(F)c4)C3)c(F)cn2)c1C` [compound 97, (S)-2-(4-(4-((1-(5-(3,5-difluorophenyl)-4,5-dihydro-1H-pyrazole-1-carbonyl)azetidin-3-yl)oxy)-5-fluoropyridin-2-yl)-3,5-dimethyl-1H-pyrazol-1-yl)-N-methylacetamide], the EC50 under setting [2] is 0.1 to 100 nM.

Consider `CNc1cnn(C)c1-c1cc(OC2CN(C(=O)N3N=CC[C@H]3c3cc(F)cc(F)c3)C2)c(F)cn1` [compound 54, (S)-(5-(3,5-difluorophenyl)-4,5-dihydro-1H-pyrazol-1-yl)(3-((5-fluoro-2-(1-methyl-4-(methylamino)-1H-pyrazol-5-yl)pyridin-4-yl)oxy)azetidin-1-yl)methanone], for which, under setting [2], the half-maximal effective concentration (EC50) was 0.1 to 100 nM.
